# Test results as given in ChEMBL document CHEMBL3779772, “Synthesis of tetracyclic iminosugars fused benzo[e][1,3]thiazin-4-one and their HIV-RT inhibitory activity” (Bioorg Med Chem Lett, 2016).
# Target: Human immunodeficiency virus type 1 reverse transcriptase (Human immunodeficiency virus 1, UniProt Q72547)
# Test: Inhibition of HIV1 reverse transcriptase using DIG-labeled dNTPs as substrate after 1 hr by ELISA
row,Structure (SMILES),IC50 [µM]
1,C[C@H]1C(=O)N2C[C@@H](O)[C@@H](O)[C@@H]2[C@@H]2Sc3ccccc3C(=O)N12,9.65
2,C[C@H]1C(=O)N2C[C@@H](O)[C@@H](O)[C@@H]2[C@H]2Sc3ccccc3C(=O)N21,4.21
3,O=C1CN2C(=O)c3ccccc3S[C@H]2[C@H]2[C@H](O)[C@H](O)CN12,8.21

# Stronger by IC50, values ahead:
row,IC50 [µM],Structure (SMILES)
1,0.82,O=C1CN2C(=O)c3ccccc3S[C@@H]2[C@H]2[C@H](O)[C@H](O)CN12
2,2.01,C[C@@H]1C(=O)N2C[C@@H](O)[C@@H](O)[C@@H]2[C@@H]2Sc3ccccc3C(=O)N12
